# In paper PMC4192315, “An Efficient Preparation of Mulberroside A from the Branch Bark of Mulberry and Its Effect on the Inhibition of Tyrosinase Activity” (PLoS ONE, 2014):
# Entries after “also recorded” stand apart in the source; their conditions may differ. Where two headings read alike, the source gives them in different places.
# Columns and labels:
# [1] = design: method as in PMID 8951165; details: rats, cited from earlier work
# intestinal bacteria = details: cited from earlier work
# mushroom tyrosinase [2] = details: cited from earlier work
# mushroom tyrosinase [3] = experiment: Effect on the total process of dopachrome synthesis (consecutive UV-Vis spectra, oxidation of L-tyrosine by tyrosinase); assay type: biochemical; details: 2.0 µmol/L sample, 0-12 min
# Method: The effect of tyrosinase (Worthington, USA) on the catalysis of L-tyrosine to dopachrome was determined using the method described by Hiroki, with slight modifications. The total reaction volume was 3 mL. […] The change in the absorption spectrum was determined using a Hitachi U3000 UV-visible spectrophotometer at 30°C isothermal conditions. The scanning wavelength ranged from 250 nm to 600 nm. The scanning frequency was 2 min, and the scanning time was 12 min. Thus, the changes in the absorption spectrum over time were obtained.
# tyrosinase = molecular target: tyrosinase; design: method as in PMID 22878208; details: read-out: IC50 of tyrosinase inhibitory activity; cited from earlier work
# mushroom tyrosinase [4] = experiment: Effect on the enzyme-catalysed process (N-acetyl-L-tyrosine as substrate, HPLC); assay type: biochemical; details: 175.9 µmol/L sample, 0-60 min
# Method: The effect of the enzyme-catalysed process was determined using a previously described method, with slight modifications. In total, 100 mg N-acetyl-L-tyrosine was dissolved using NaH2PO4-Na2HPO4 temporary buffer solution (pH 6.8), and the volume was set to 100 mL. In total, 0.25 mg/mL enzyme solution and a certain concentration of the sample solution were prepared. All the solutions were filtered using a syringe filter with an aperture of 0.22 µm. The components of the reaction system were as follows: 80 µL N-acetyl-L-tyrosine was mixed with 10 µL sample solution and incubated at 30°C for 5 min, and then 10 µL enzyme solution was added. During the period from 0–60 min, 20 µL mixed solution was injected into the HPLC system every 10 min to detect changes in N-acetyl-L-tyrosine. The HPLC conditions were as follows: a Shimadzu HPLC pump equipped with a Shimadzu 9082652 VP-ODS column (250 mm×4.6 mm). The detection wavelength was 275 nm. The injection volume was 10 µL, and the flow-rate was 1.0 mL/min. The mobile phases were A (water) and B (acetonitrile), which were prepared according to the following linear procedure: 0–8 min, A/B = 85:15 (v/v). All analyses were performed at room temperature.
# [5] = Effect on the non-enzyme-catalysed process (redox reaction of L-DOPA and p-benzoquinone, HPLC); details: HPLC at 245 nm and 280 nm
# Method: The effect of the non-enzyme-catalysed process was determined by a previously described method, with slight modifications. The HPLC conditions were as follows: a Shimadzu HPLC pump equipped with a Shimadzu VP-ODS column (250 mm×4.6 mm). The detection wavelengths were 245 nm and 280 nm. The injection volume was 20 µL, and the flow-rate was 1.0 mL/min. The mobile phases were A (0.4% aqueous acetic acid) and B (acetonitrile), which were prepared according to the following linear procedure: 0–10 min, A/B = 90:10 (v/v).
# [6] = molecular target: diphenolase activity of the mushroom tyrosinase (Agaricus bisporus, UniProt C7FF04); experiment: Inhibition of diphenolase activity of mushroom tyrosinase (L-DOPA as substrate, absorbance at 475 nm); assay type: biochemical; details: for Inhibition type: Lineweaver-Burk plots; for Inhibition mechanism: plot of V against [E]
# Method: The measurement of the sample's inhibitory activity on diphenolase activity was based on 0.5 mmol/L L-DOPA as the substrate. The experimental procedure and calculations were identical to those above-mentioned procedures and calculations.
# (§1) The concentration of the substrate was fixed in 3.0 mL of 50 mmol/L NaH2PO4-Na2HPO4 temporary buffer solution (pH 6.8); however, the amount of enzyme was changed to determine the effects of different concentrations of sample on the reaction of mushroom tyrosinase catalysing L-tyrosine or L-DOPA as substrates. Mapping the reaction rate in terms of the amount of enzyme determined whether the inhibition was a reversible reaction.
# (§2) And the inhibition type and inhibition constant were determined as follows. The concentration of the enzyme solution was fixed in 3.0 mL of 50 mmol/L NaH2PO4-Na2HPO4 temporary buffer solution (pH 6.8); however, the amount of substrate (L-tyrosine or L-DOPA) was changed to determine the effects of different concentrations of effectors on the reaction of mushroom tyrosinase catalysing the substrate. Using the Lineweaver-Burk method, the curve was plotted as the reciprocal of the reaction rate 1/V against the reciprocal of the substrate 1/[S] to determine the type of inhibition. If the lines intersected on the y-axis, then competitive inhibition was indicated. If the lines intersected on the x-axis, then noncompetitive inhibition was indicated. If the lines intersected in the […] quadrant, then this inhibition was mixed type 1 or 2. If the lines were parallel, then anticompetitive inhibition was indicated. The inhibition constant of the effectors on tyrosinase (KI) and the inhibition constants of the enzyme-substrate complex (KIS) were obtained by a secondary plot of the concentration of the effectors against the slope of the line and the y-axis intercept, respectively.
# [7] = molecular target: monophenolase activity of the mushroom tyrosinase (Agaricus bisporus, UniProt C7FF04); experiment: Inhibition of monophenolase activity of mushroom tyrosinase (L-tyrosine as substrate, absorbance at 475 nm); assay type: biochemical; details: for Inhibition type: Lineweaver-Burk plots; for Inhibition mechanism: plot of V against [E]
# Method: The measurement of the sample's inhibitory activity on monophenolase activity was based on 0.5 mmol/L L-tyrosine as the substrate. The total reaction volume was 3.0 mL, which included 2.8 mL substrate solution, 100 µL different concentrations of the sample solutions and 100 µL mushroom tyrosinase solution. The substrate and enzyme solution were dissolved in 50 mmol/L NaH2PO4-Na2HPO4 temporary buffer solution (pH 6.8), with a substrate concentration of 0.5 mmol/L and with an enzyme solution concentration of 1.0 mg/mL. The samples were dissolved in DMSO. First, 100 µL sample solution was added, then 2.8 mL substrate solution, which was pre-incubated at 30°C, was added, and last, 100 µL enzyme solution was added and immediately mixed. The curve was drawn using real-time tracking of the optical density change over time at 475 nm. The measuring instrument was a Hitachi U3000 UV-visible spectrophotometer. The enzyme activity was obtained from the slope of the line. The sample concentration-response curve was plotted as the inhibition rate of samples to the enzyme against the concentrations of effectors.
# as §1, §2
# [8] = cited from earlier work
# mushroom tyrosinase [9] = experiment: Mushroom tyrosinase inhibition (literature values); assay type: biochemical; details: monophenolase
# [10] = MA isolated from ethanol extract of roots of Morus alba, read-out: Tyrosinase inhibitory activity
# Sequence of monophenolase activity of the mushroom tyrosinase (C7FF04 1-392): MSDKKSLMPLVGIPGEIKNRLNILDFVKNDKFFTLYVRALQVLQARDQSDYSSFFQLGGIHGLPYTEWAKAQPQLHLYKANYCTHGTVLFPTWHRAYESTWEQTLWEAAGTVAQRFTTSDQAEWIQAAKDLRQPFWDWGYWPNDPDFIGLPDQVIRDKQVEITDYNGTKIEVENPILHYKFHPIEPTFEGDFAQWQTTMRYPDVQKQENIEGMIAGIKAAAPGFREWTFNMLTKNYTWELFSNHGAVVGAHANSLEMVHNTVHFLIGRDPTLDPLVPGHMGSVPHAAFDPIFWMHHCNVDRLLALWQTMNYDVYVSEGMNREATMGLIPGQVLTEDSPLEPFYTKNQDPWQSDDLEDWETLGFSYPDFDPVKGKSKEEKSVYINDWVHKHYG
# Sequence of diphenolase activity of the mushroom tyrosinase (C7FF04 1-392): as above
Compound,IC50 (mushroom tyrosinase [2]; [10]),Effect on formation of dopachrome (mushroom tyrosinase [3]),Change in content of N-acetyl-L-tyrosine (mushroom tyrosinase [4]),Effect on redox reaction of L-DOPA and p-benzoquinone (non-enzymatic process) [5],Inhibition type [6],Inhibition mechanism [6],Inhibition type [7],KIS (inhibition constant of the enzyme-substrate complex) [7],Inhibition mechanism [7],also measured
"OC[C@H]1O[C@@H](Oc2cc(O)cc(/C=C/c3ccc(O[C@@H]4O[C@H](CO)[C@@H](O)[C@H](O)[C@H]4O)cc3O)c2)[C@H](O)[C@@H](O)[C@@H]1O [MA, oxyresveratrol-4-O-β-D-glucopyranosyl-3′-O-β-D-glucopyranoside]",53.6 µM,inhibited the formation of dopachrome,did not change,not influenced; also recorded: no effect,competitive,reversible,mixed type 1,0.177 µmol/L,reversible,"Bioavailability ([1]; oral administration of mulberry root acetone extract): approximately 1%; Absorption rate ([1]; oral, most MA transformed to OR and transferred into circulating blood, estimated): 50%; Metabolism by intestinal bacteria (intestinal bacteria): rapidly deglucosylated and transformed into OR; Inhibition type (mushroom tyrosinase [2]; L-tyrosine and L-DOPA as substrates): competitive; IC50 (tyrosinase): 42.1 µM; Permeability [8]: poor permeability"
"Oc1cc(O)cc(/C=C/c2ccc(O)cc2O)c1 [OR, oxyresveratrol]",0.49 µM,inhibited the formation of dopachrome,did not change,not influenced,Non-competitive,reversible,mixed type 1,0.662 µmol/L,reversible,"Inhibition mechanism (mushroom tyrosinase [2]; L-tyrosine as the substrate): reversibly inhibited; Inhibition type (mushroom tyrosinase [2]; L-tyrosine as the substrate): non-competitive; IC50 (mushroom tyrosinase [2]; depending on the assay conditions, read-out: IC50): 0.46 to 1.1 µM; Difference in IC50 between literature and this paper (mushroom tyrosinase [9]; compared with ref 8): 8 fold; Difference in IC50 between literature and this paper (mushroom tyrosinase [9]; printed as lower than our experiment, compared with ref 6): approximately 4 fold; KIS (inhibition constant of the enzyme-substrate complex) ([6]; enzyme-substrate complex): 2.95 µmol/L"
